Assay: xn = mol fraction of the nth substance listed
Settings: Liquid, Vibrating tube method

CCCCCCCCCCCC [dodecane] + CCCCCCCCCC
Settings | mass density [kg/m3]
283.29 K, 100 kPa, x2 = 0 | 756
283.29 K, 1000 kPa, x2 = 0 | 757
283.29 K, 3000 kPa, x2 = 0 | 758
283.3 K, 5000 kPa, x2 = 0 | 760
283.3 K, 10000 kPa, x2 = 0 | 763
283.3 K, 30000 kPa, x2 = 0 | 775
283.3 K, 40000 kPa, x2 = 0 | 780
283.3 K, 50000 kPa, x2 = 0 | 785
283.3 K, 60000 kPa, x2 = 0 | 790
283.31 K, 20000 kPa, x2 = 0 | 769
283.31 K, 70000 kPa, x2 = 0 | 795
283.32 K, 80000 kPa, x2 = 0 | 799
283.32 K, 90000 kPa, x2 = 0 | 803
283.46 K, 100 kPa, x2 = 0.4436 | 748
283.47 K, 1000 kPa, x2 = 0.4436 | 749
283.47 K, 5000 kPa, x2 = 0.4436 | 752
283.48 K, 10000 kPa, x2 = 0.4436 | 755
283.48 K, 20000 kPa, x2 = 0.4436 | 762
283.48 K, 40000 kPa, x2 = 0.4436 | 773
283.49 K, 30000 kPa, x2 = 0.4436 | 767
283.49 K, 60000 kPa, x2 = 0.4436 | 783
283.49 K, 80000 kPa, x2 = 0.4436 | 792
283.49 K, 100000 kPa, x2 = 0.4436 | 801
283.52 K, 100 kPa, x2 = 0.2297 | 752
283.52 K, 1000 kPa, x2 = 0.2297 | 753
283.52 K, 5000 kPa, x2 = 0.2297 | 755
283.52 K, 10000 kPa, x2 = 0.2297 | 759
283.52 K, 20000 kPa, x2 = 0.2297 | 765
283.52 K, 30000 kPa, x2 = 0.2297 | 771
283.52 K, 40000 kPa, x2 = 0.2297 | 776
283.53 K, 60000 kPa, x2 = 0.2297 | 786
283.53 K, 80000 kPa, x2 = 0.2297 | 796
283.54 K, 100000 kPa, x2 = 0.2297 | 804
283.57 K, 1000 kPa, x2 = 0.7841 | 743
283.58 K, 100 kPa, x2 = 0.7841 | 742
283.59 K, 5000 kPa, x2 = 0.7841 | 745
283.6 K, 10000 kPa, x2 = 0.7841 | 749
283.61 K, 100 kPa, x2 = 0.6433 | 745
283.61 K, 1000 kPa, x2 = 0.6433 | 745
283.61 K, 20000 kPa, x2 = 0.7841 | 755
283.61 K, 30000 kPa, x2 = 0.7841 | 761
283.61 K, 40000 kPa, x2 = 0.7841 | 767
283.61 K, 60000 kPa, x2 = 0.7841 | 777
283.61 K, 80000 kPa, x2 = 0.7841 | 787
283.61 K, 100000 kPa, x2 = 0.7841 | 795
283.62 K, 5000 kPa, x2 = 0.6433 | 748
283.62 K, 10000 kPa, x2 = 0.6433 | 752
283.62 K, 20000 kPa, x2 = 0.6433 | 758
283.62 K, 30000 kPa, x2 = 0.6433 | 764
283.62 K, 40000 kPa, x2 = 0.6433 | 770
283.62 K, 60000 kPa, x2 = 0.6433 | 780
283.62 K, 80000 kPa, x2 = 0.6433 | 789
283.62 K, 100000 kPa, x2 = 0.6433 | 798
293.17 K, 100 kPa, x2 = 0 | 749
293.18 K, 1000 kPa, x2 = 0 | 750
293.19 K, 5000 kPa, x2 = 0 | 753
293.19 K, 10000 kPa, x2 = 0 | 756
293.19 K, 20000 kPa, x2 = 0 | 763
293.19 K, 30000 kPa, x2 = 0 | 769
293.19 K, 40000 kPa, x2 = 0 | 774
293.19 K, 50000 kPa, x2 = 0 | 780
293.19 K, 70000 kPa, x2 = 0 | 789
293.19 K, 80000 kPa, x2 = 0 | 794
293.19 K, 90000 kPa, x2 = 0 | 798
293.19 K, 100000 kPa, x2 = 0 | 802
293.2 K, 60000 kPa, x2 = 0 | 785
293.43 K, 10000 kPa, x2 = 0.4436 | 749
293.43 K, 20000 kPa, x2 = 0.4436 | 755
293.43 K, 30000 kPa, x2 = 0.2297 | 765
293.43 K, 30000 kPa, x2 = 0.4436 | 761
293.43 K, 40000 kPa, x2 = 0.2297 | 771
293.43 K, 40000 kPa, x2 = 0.4436 | 767
293.43 K, 60000 kPa, x2 = 0.2297 | 781
293.43 K, 60000 kPa, x2 = 0.4436 | 778
293.43 K, 80000 kPa, x2 = 0.4436 | 787
293.43 K, 100000 kPa, x2 = 0.4436 | 796
293.44 K, 100 kPa, x2 = 0.4436 | 741
293.44 K, 1000 kPa, x2 = 0.4436 | 742
293.44 K, 5000 kPa, x2 = 0.4436 | 745
293.44 K, 20000 kPa, x2 = 0.2297 | 759
293.44 K, 80000 kPa, x2 = 0.2297 | 790
293.44 K, 100000 kPa, x2 = 0.2297 | 799
293.45 K, 100 kPa, x2 = 0.2297 | 745
293.45 K, 1000 kPa, x2 = 0.2297 | 746
293.45 K, 5000 kPa, x2 = 0.2297 | 749
293.45 K, 10000 kPa, x2 = 0.2297 | 752
293.51 K, 100000 kPa, x2 = 0.6433 | 793
293.52 K, 100 kPa, x2 = 0.6433 | 738
293.52 K, 1000 kPa, x2 = 0.6433 | 738
293.52 K, 5000 kPa, x2 = 0.6433 | 741
293.52 K, 10000 kPa, x2 = 0.6433 | 745
293.52 K, 20000 kPa, x2 = 0.6433 | 752
293.52 K, 30000 kPa, x2 = 0.6433 | 758
293.52 K, 40000 kPa, x2 = 0.6433 | 764
293.52 K, 60000 kPa, x2 = 0.6433 | 774
293.52 K, 80000 kPa, x2 = 0.6433 | 784
293.53 K, 60000 kPa, x2 = 0.7841 | 772
293.53 K, 80000 kPa, x2 = 0.7841 | 781
293.53 K, 100000 kPa, x2 = 0.7841 | 790
293.54 K, 100 kPa, x2 = 0.7841 | 735
293.54 K, 1000 kPa, x2 = 0.7841 | 735
293.54 K, 5000 kPa, x2 = 0.7841 | 738
293.54 K, 10000 kPa, x2 = 0.7841 | 742
293.54 K, 20000 kPa, x2 = 0.7841 | 749
293.54 K, 30000 kPa, x2 = 0.7841 | 755
293.54 K, 40000 kPa, x2 = 0.7841 | 761
303.04 K, 30000 kPa, x2 = 0 | 762
303.04 K, 100000 kPa, x2 = 0 | 797
303.05 K, 100 kPa, x2 = 0 | 742
303.05 K, 1000 kPa, x2 = 0 | 743
303.05 K, 5000 kPa, x2 = 0 | 746
303.05 K, 20000 kPa, x2 = 0 | 756
303.05 K, 50000 kPa, x2 = 0 | 774
303.05 K, 60000 kPa, x2 = 0 | 779
303.05 K, 70000 kPa, x2 = 0 | 784
303.05 K, 80000 kPa, x2 = 0 | 789
303.05 K, 90000 kPa, x2 = 0 | 793
303.06 K, 10000 kPa, x2 = 0 | 749
303.06 K, 40000 kPa, x2 = 0 | 768
